In US11760733B2, “Small molecule regulators of mitochondrial fusion and methods of use thereof” (Washington University, priority 2017, dated 2023):
“Also recorded” adds a separate entry of the source.

Test system: Mfn2 null MEFs
Test: Mitochondrial elongation (aspect ratio) fusogenicity assay
Assay type: cell-based, mouse
Conditions: not given
Excerpt: A cultured murine embryonic fibroblast assay system was used in which mitochondrial elongation (an increase in aspect ratio) reflects enhanced mitochondrial fusion.
A pharmacophore model was generated based on the interactions of HR1 and HR2 domains in the calculated structural model of Mfn2 in the closed conformation. The key features included hydrophobic interactions involving Mfn2 HR1: Val372 and Met376, and aromatic interactions and hydrogen bonding involving Mfn2 HR1 His380. […] A library comprising ˜14 million commercially available compounds was prepared in silico and evaluated using PHASE to fit these criteria. Top ranked hits were clustered, and filtered based on pharmacological properties using Qikprop. The top 55 (see TABLE 4) commercially available small molecules conforming to the model were selected for functional screening and purchased in 1 mg aliquots. Each compound was dissolved to a stock concentration of 10 mM in DMSO and applied to Mfn2 null MEFs overnight at a final concentration of 1 mM. […] Images were acquired by confocal microscopy. Each compound was scored for fusogenicity (see e.g., FIG. 24A) and % cell death (see e.g., FIG. 24B).
Wild-type MEFs were prepared from E10.5 c57/bl6 mouse embryos. […] MEFs were subcultured in DMEM (4.5 g/L glucose) plus 10% fetal bovine serum, 1× nonessential amino acids, 2 mM L-glutamine, 100U/ml penicillin and 100 ug/ml streptomycin.
Cells were excited with 408 nm (Hoechst), […] (MitoTracker Green and Calcein AM, GFP), or 637 nm (TMRE, MitoTracker Orange, Ethidium homodimer-1, and AF594-Dextran) laser diodes. For mitochondrial elongation studies mitochondrial aspect ratio (long axis/short axis) was calculated using automated edge detection and Image J software. Mitochondrial depolarization was calculated as % of green mitochondria visualized on MitoTracker Green and TMRE merged images, expressed as green/(green+yellow mitochondria)×100.

| SMILES | fusogenic activity (mitochondrial elongation), in words |
| --- | --- |
| O=C1CC(SCCc2nc3ccccc3[nH]2)C(=O)N1c1cccc(F)c1 (stereo not drawn) [D9] | no true fusogenic activity; also recorded: failed validation in the secondary screen |

Same assay, conditions: Mus musculus; read-out: % long compare to B

| SMILES | Emax [%] |
| --- | --- |
| CCn1c(SCC(=O)Nc2sc3c(c2C(N)=O)CCC3)nnc1-c1ccc(Cl)cc1 [1-A1, 2-(2-{[5-(4-chlorophenyl)-4-ethyl-4H-1,2,4-triazol-3-yl]sulfanyl}acetamido)-4H,5H,6H-cyclopenta[b]thiophene-3-carboxamide] | 11 |
| NC(=O)c1c(NC(=O)CSc2nnc(-c3ccccc3F)n2C2CC2)sc2c1CCC2 [1-A2, 2-(2-{[4-cyclopropyl-5-(2-fluorophenyl)-4H-1,2,4-triazol-3-yl]sulfanyl}acetamido)-4H,5H,6H-cyclopenta[b]thiophene-3-carboxamide] | -23 |
| CCn1c(SC(C)C(=O)Nc2sc3c(c2C(N)=O)CCC3)nnc1-c1ccoc1C (stereo not drawn) [1-A6, 2-(2-{[4-ethyl-5-(2-methylfuran-3-yl)-4H-1,2,4-triazol-3-yl]sulfanyl}propanamido)-4H,5H,6H-cyclopenta[b]thiophene-3-carboxamide] | -31 |
| COCCn1c(SC(C)C(=O)Nc2sc3c(c2C(N)=O)CCC3)nnc1-c1ccncc1 (stereo not drawn) [1-B12, 2-(2-{[4-(2-methoxyethyl)-5-(pyridin-4-yl)-4H-1,2,4-triazol-3-yl]sulfanyl}propanamido)-4H,5H,6H-cyclopenta[b]thiophene-3-carboxamide] | -1 |
| Cc1ccc(-n2c(C)nnc2SCC(=O)Nc2sc3c(c2C(N)=O)CCCC3)cc1 [1-D3, 2-(2-{[5-methyl-4-(4-methylphenyl)-4H-1,2,4-triazol-3-yl]sulfanyl}acetamido)-4,5,6,7-tetrahydro-1-benzothiophene-3-carboxamide] | 1 |
| CC1CCc2c(sc(NC(=O)CSc3nnc(C4CC4)n3-c3ccccc3)c2C(N)=O)C1 (stereo not drawn) [1-D5, 2-{2-[(5-cyclopropyl-4-phenyl-4H-1,2,4-triazol-3-yl)sulfanyl]acetamido}-6-methyl-4,5,6,7-tetrahydro-1-benzothiophene-3-carboxamide] | 2 |
| Cc1occc1-c1nnc(SCC(=O)Nc2sc3c(c2C(N)=O)CCC3)n1-c1ccccc1 [1-D10, 2-(2-{[5-(2-methylfuran-3-yl)-4-phenyl-4H-1,2,4-triazol-3-yl]sulfanyl}acetamido)-4H,5H,6H-cyclopenta[b]thiophene-3-carboxamide] | 17 |
| Cc1ccccc1-n1c(SCC(=O)Nc2sc3c(c2C(N)=O)CCCC3)nnc1-c1cccnc1 [1-E12, 2-(2-{[4-(2-methylphenyl)-5-(pyridin-3-yl)-4H-1,2,4-triazol-3-yl]sulfanyl}acetamido)-4,5,6,7-tetrahydro-1-benzothiophene-3-carboxamide] | -3 |
| NC(=O)c1c(NC(=O)CSc2nnc(-c3cccnc3)n2-c2ccccc2)sc2c1CCCC2 [1-G3, 2-(2-{[4-phenyl-5-(pyridin-3-yl)-4H-1,2,4-triazol-3-yl]sulfanyl}acetamido)-4,5,6,7-tetrahydro-1-benzothiophene-3-carboxamide] | 4 |
| NC(=O)c1c(NC(=O)CSc2nnc3n2CCCCC3)sc2c1CCCC2 [1-G10, 2-(2-{5H,6H,7H,8H,9H-[1,2,4]triazolo[4,3-a]azepin-3-ylsulfanyl}acetamido)-4,5,6,7-tetrahydro-1-benzothiophene-3-carboxamide] | -3 |
| Cc1ccccc1-n1c(SCC(=O)Nc2sc3c(c2C(N)=O)CCC3)nnc1-c1ccncc1 [1-H1, 2-(2-{[4-(2-methylphenyl)-5-(pyridin-4-yl)-4H-1,2,4-triazol-3-yl]sulfanyl}acetamido)-4H,5H,6H-cyclopenta[b]thiophene-3-carboxamide] | -3 |
| Cn1c(SCC(=O)Nc2sc3c(c2C(N)=O)CCC3)nnc1-c1ccc(Cl)cc1 [1-H2, 2-(2-{[5-(4-chlorophenyl)-4-methyl-4H-1,2,4-triazol-3-yl]sulfanyl}acetamido)-4H,5H,6H-cyclopenta[b]thiophene-3-carboxamide] | 0 |
| NC(=O)c1c(NC(=O)CSc2nnc(C3CC3)n2C2CC2)sc2c1CCCC2 [2-A2, 2-{2-[(dicyclopropyl-4H-1,2,4-triazol-3-yl)sulfanyl]acetamido}-4,5,6,7-tetrahydro-1-benzothiophene-3-carboxamide] | 4 |
| CC1CCCCC1NC(=O)NCCSCc1ccccc1 (stereo not drawn) [A10, 1-[2-(benzylsulfanyl)ethyl]-3-(2-methylcyclohexyl)urea] | 72 |
| O=C(Nc1cc(CSCCOC(=O)C2C3CCCCC32)ccn1)C1C2CCCCC21 (stereo not drawn) [A12, 2-{[(2-{bicyclo[4.1.0]heptane-7-amido}pyridin-4-yl)methyl]sulfanyl}ethyl bicyclo[4.1.0]heptane-7-carboxylate] | 31 |
| CC(c1cccc([N+](=O)[O-])c1)N(C)CC(=O)NCCSCc1ccccc1C#N (stereo not drawn) [B05, N-(2-{[(2-cyanophenyl)methyl]sulfanyl}ethyl)-2-{methyl[1-(3-nitrophenyl)ethyl]amino}acetamide] | 15 |
| Cc1cccc(NC(=O)CSCC(=O)N(Cc2ccc(N(C)C)cc2)C(C)C)c1 [B12, N-{[4-(dimethylamino)phenyl]methyl}-2-({[(3-methyl-phenyl)carbamoyl]methyl}sulfanyl)-N-(propan-2-yl)acetamide] | 26 |

Same assay, conditions: rank by aspect ratio among 44 soluble compounds

| SMILES | Fusogenicity Rank |
| --- | --- |
| CC(c1cccc([N+](=O)[O-])c1)N(C)CC(=O)NCCSCc1ccccc1C#N (stereo not drawn) [drawing 250] | 16 |

Test system: not listed separately
Test: Solubility of library compounds in DMSO stock
Assay type: physicochemical
Conditions: stock concentration of 10 mM in DMSO
Procedure: A pharmacophore model was generated based on the interactions of HR1 and HR2 domains in the calculated structural model of Mfn2 in the closed conformation. The key features included hydrophobic interactions involving Mfn2 HR1: Val372 and Met376, and aromatic interactions and hydrogen bonding involving Mfn2 HR1 His380. […] A library comprising ˜14 million commercially available compounds was prepared in silico and evaluated using PHASE to fit these criteria. Top ranked hits were clustered, and filtered based on pharmacological properties using Qikprop. The top 55 (see TABLE 4) commercially available small molecules conforming to the model were selected for functional screening and purchased in 1 mg aliquots. Each compound was dissolved to a stock concentration of 10 mM in DMSO and applied to Mfn2 null MEFs overnight at a final concentration of […]. Eleven of the library members were not soluble in DMSO at the required concentration. The 44 fully soluble compounds were screened in groups of 6 at a time for cytotoxicity (calcein AM/ethidium homodimer staining; ThermoFisher LIVE/DEAD Assay cat # L3224) and fusogenicity (increase in mitochondrial aspect ratio; MitoTracker Orange staining) compared to cells treated overnight with […] of the parent HR1 367-384 mitofusin agonist peptide (positive control) or vehicle (DMSO). Images were acquired by confocal microscopy. Each compound was scored for fusogenicity (see e.g., FIG. 24A) and % cell death (see e.g., FIG. 24B). Pharmacophore model fit generally correlated with actual fusogenic activity (Pearson correlation coefficient r=0.214; see e.g., FIG. 24A, inset; TABLE 4).

| SMILES | Solubility in DMSO |
| --- | --- |
| CC(=O)NC12CC3CC(C1)CC(C(=O)NCCSCc1ccc(C)cc1)(C3)C2 [3-acetamido-N-(2-{[(4-methylphenyl)methyl]sulfanyl}ethyl)adamantane-1-carboxamide] | Insoluble |
| Cc1ccc(C(=O)C(C)Sc2nnc3c(=O)n(-c4ccccc4)ccn23)cc1C (stereo not drawn) [3-{[1-(3,4-dimethylphenyl)-1-oxopropan-2-yl]sulfanyl}-7-phenyl-7H,8H-[1,2,4]triazolo[4,3-a]pyrazin-8-one] | Insoluble |
| Cc1ccc(C(=O)C(C)Sc2nnc3c(=O)n(-c4ccc(Br)cc4)ccn23)cc1C (stereo not drawn) [7-(4-bromophenyl)-3-{[1-(3,4-dimethylphenyl)-1-oxopropan-2-yl]sulfanyl}-7H,8H-[1,2,4]triazolo[4,3-a]pyrazin-8-one] | Insoluble |
| COc1cc(Cl)c(C)cc1N1C(=O)[C@@H]2C[C@H]1CN2Cc1cccn1-c1ncccn1 [(1S,4S)-2-(4-chloro-2-methoxy-5-methylphenyl)-5-{[1-(pyrimidin-2-yl)-1H-pyrrol-2-yl]methyl}-2,5-diazabicyclo[2.2.1]heptan-3-one] | Insoluble |
| Cc1ccc(CSCCNC(=O)C2CCN(c3ccc4nnc(C(F)(F)F)n4n3)CC2)cc1 [N-(2-{[(4-methylphenyl)methyl]sulfanyl}ethyl)-1-[3-(trifluoromethyl)-[1,2,4]triazolo[4,3-b]pyridazin-6-yl]piperidine-4-carboxamide] | Insoluble |
| CC(Sc1nc(C2CC2)nc2c1c(=O)[nH]c(=O)n2C1CC1)C(=O)NCC1CCCCC1 (stereo not drawn) [N-(cyclohexylmethyl)-2-({2,8-dicyclopropyl-5,7-dioxo-5H,6H,7H,8H-pyrimido[4,5-d][1,3]diazin-4-yl}sulfanyl)propanamide] | Insoluble |
| Cc1ccc(SC(C)C(=O)Nc2ccc(NS(=O)(=O)c3ccc4c(c3)OCCCO4)cc2)cc1 (stereo not drawn) [N-[4-(3,4-dihydro-2H-1,5-benzodioxepine-7-sulfonamido)phenyl]-2-[(4-methylphenyl)sulfanyl]propanamide] | Insoluble |
| CCc1nnc(SC(CC)C(=O)N(CC)c2cccc(C)c2)c2cc3occc3n12 (stereo not drawn) [N-ethyl-2-({12-ethyl-5-oxa-1,10,11-triazatricyclo[6.4.0.0^2,^6]dodeca-2(6),3,7,9,11-pentaen-9-yl}sulfanyl)-N-(3-methylphenyl)butanamide] | Insoluble |
